Results: PubChem BioAssay (NCI)
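Cultured in 96-well plates, cells were exposed to test compound for 48 hours across five concentrations. GI50: concentration for 50% inhibition of growth. Definition used: TGI = concentration required for complete inhibition of growth.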

Columns and labels:
Assay in all cases: NCI anticancer screen, dose series, 48 h
HCT-15 colon = tested on: HCT-15 colon
HS 578T breast = tested on: HS 578T breast
HCC-2998 colon = tested on: HCC-2998 colon
OVCAR-5 ovarian = tested on: OVCAR-5 ovarian
SF-539 CNS = tested on: SF-539 CNS
786-0 renal = tested on: 786-0 renal
HOP-92 NSCLC = tested on: HOP-92 NSCLC
A549 NSCLC = tested on: A549 NSCLC
OVCAR-8 ovarian = tested on: OVCAR-8 ovarian
SK-MEL-2 melanoma = tested on: SK-MEL-2 melanoma
HT29 colon = tested on: HT29 colon
NCI-H522 lung = tested on: NCI-H522 lung
T-47D breast = tested on: T-47D breast
KM12 colon = tested on: KM12 colon
HCT-116 colon = tested on: HCT-116 colon
PC-3 prostate = tested on: PC-3 prostate
SK-MEL-28 melanoma = tested on: SK-MEL-28 melanoma
SW-620 colon = tested on: SW-620 colon
RPMI-8226 leukemia = tested on: RPMI-8226 leukemia
TK-10 renal = tested on: TK-10 renal
MOLT-4 leukemia = tested on: MOLT-4 leukemia
OVCAR-3 ovarian = tested on: OVCAR-3 ovarian
EKVX NSCLC = tested on: EKVX NSCLC
UO-31 renal = tested on: UO-31 renal
UACC-62 melanoma = tested on: UACC-62 melanoma
RXF 393 renal = tested on: RXF 393 renal
SF-268 CNS = tested on: SF-268 CNS
MDA-MB-435 = tested on: MDA-MB-435
K-562 leukemia = tested on: K-562 leukemia
LOX IMVI melanoma = tested on: LOX IMVI melanoma
NCI-H23 lung = tested on: NCI-H23 lung
U251 CNS = tested on: U251 CNS
A498 renal = tested on: A498 renal
MALME-3M melanoma = tested on: MALME-3M melanoma
IGROV1 ovarian = tested on: IGROV1 ovarian
SNB-19 CNS = tested on: SNB-19 CNS
NCI-H226 lung = tested on: NCI-H226 lung
DU-145 prostate = tested on: DU-145 prostate
SF-295 CNS = tested on: SF-295 CNS
M14 melanoma = tested on: M14 melanoma
CAKI-1 renal = tested on: CAKI-1 renal
CCRF-CEM leukemia = tested on: CCRF-CEM leukemia
NCI/ADR-RES ovarian = tested on: NCI/ADR-RES ovarian
ACHN renal = tested on: ACHN renal
OVCAR-4 ovarian = tested on: OVCAR-4 ovarian
HOP-62 NSCLC = tested on: HOP-62 NSCLC
MCF7 breast = tested on: MCF7 breast
UACC-257 melanoma = tested on: UACC-257 melanoma
COLO 205 colon = tested on: COLO 205 colon
MDA-MB-231 breast = tested on: MDA-MB-231 breast
HL-60(TB) leukemia = tested on: HL-60(TB) leukemia
SN12C renal = tested on: SN12C renal
BT-549 breast = tested on: BT-549 breast
SK-MEL-5 melanoma = tested on: SK-MEL-5 melanoma
SK-OV-3 ovarian = tested on: SK-OV-3 ovarian
SNB-75 CNS = tested on: SNB-75 CNS
NCI-H460 lung = tested on: NCI-H460 lung

With `COC(=O)C1=C(C(=O)OC)SC(=C2S[C@@H]3[C@@H]4C[C@H]([C@@H]3S2)[C@H]2C(=O)OC(=O)[C@@H]42)S1` the TGI (HCT-15 colon) was over 100 µM, the TGI (HS 578T breast) was over 100 µM and the TGI (HCC-2998 colon) was over 100 µM. For the same molecule, the TGI (OVCAR-5 ovarian) was over 100 µM, the TGI (SF-539 CNS) was over 100 µM and the TGI (786-0 renal) was over 100 µM. It also gave a TGI (HOP-92 NSCLC) of over 100 µM, a TGI (A549 NSCLC) of over 100 µM and a TGI (OVCAR-8 ovarian) of over 100 µM. The TGI (SK-MEL-2 melanoma) was over 100 µM, the TGI (HT29 colon) was over 100 µM and the TGI (NCI-H522 lung) was over 100 µM. The TGI (T-47D breast) was over 100 µM, the TGI (KM12 colon) was over 100 µM and the TGI (HCT-116 colon) was over 100 µM. The TGI (PC-3 prostate) was over 100 µM, the TGI (SK-MEL-28 melanoma) was over 100 µM and the TGI (SW-620 colon) was over 100 µM. It also gave a TGI (RPMI-8226 leukemia) of over 100 µM, a TGI (TK-10 renal) of over 100 µM and a TGI (MOLT-4 leukemia) of over 100 µM. The TGI (OVCAR-3 ovarian) was over 100 µM, the TGI (EKVX NSCLC) was over 100 µM and the TGI (UO-31 renal) was over 100 µM. For the same molecule, the TGI (UACC-62 melanoma) was over 100 µM, the TGI (RXF 393 renal) was over 100 µM and the TGI (SF-268 CNS) was over 100 µM. The TGI (MDA-MB-435) was over 100 µM, the TGI (K-562 leukemia) was over 100 µM and the TGI (LOX IMVI melanoma) was over 100 µM. For the same molecule, the TGI (NCI-H23 lung) was over 100 µM, the TGI (U251 CNS) was over 100 µM and the TGI (A498 renal) was over 100 µM. For the same molecule, the TGI (MALME-3M melanoma) was over 100 µM, the TGI (IGROV1 ovarian) was over 100 µM and the TGI (SNB-19 CNS) was over 100 µM. The TGI (NCI-H226 lung) was over 100 µM, the TGI (DU-145 prostate) was over 100 µM and the TGI (SF-295 CNS) was over 100 µM. The TGI (M14 melanoma) was over 100 µM, the TGI (CAKI-1 renal) was over 100 µM and the TGI (CCRF-CEM leukemia) was over 100 µM. It also gave a TGI (NCI/ADR-RES ovarian) of over 100 µM, a TGI (ACHN renal) of over 100 µM and a TGI (OVCAR-4 ovarian) of over 100 µM. For the same molecule, the TGI (HOP-62 NSCLC) was over 100 µM, the TGI (MCF7 breast) was over 100 µM and the TGI (UACC-257 melanoma) was over 100 µM. The TGI (COLO 205 colon) was over 100 µM, the TGI (MDA-MB-231 breast) was over 100 µM and the TGI (HL-60(TB) leukemia) was over 100 µM. It also gave a TGI (SN12C renal) of over 100 µM, a TGI (BT-549 breast) of over 100 µM and a TGI (SK-MEL-5 melanoma) of over 100 µM.

With `Cc1ccc(C2=C(c3ccc(C)cc3)C3(c4ccc(C)cc4)C4C(=O)c5ccccc5C(=O)C4C2(c2ccc(C)cc2)S3=O)cc1` (centres undefined) the GI50 (SK-OV-3 ovarian) was over 100 µM, the TGI (SK-OV-3 ovarian) was over 100 µM and the GI50 (HCT-15 colon) was over 100 µM. For the same molecule, the TGI (HCT-15 colon) was over 100 µM, the GI50 (HS 578T breast) was over 100 µM and the TGI (HS 578T breast) was over 100 µM. For the same molecule, the GI50 (HCC-2998 colon) was over 100 µM, the TGI (HCC-2998 colon) was over 100 µM and the GI50 (OVCAR-5 ovarian) was over 100 µM. It also gave a TGI (OVCAR-5 ovarian) of over 100 µM, a GI50 (SF-539 CNS) of over 100 µM and a TGI (SF-539 CNS) of over 100 µM. For the same molecule, the GI50 (786-0 renal) was 69.5 µM, the TGI (786-0 renal) was over 100 µM and the GI50 (A549 NSCLC) was over 100 µM. It also gave a TGI (A549 NSCLC) of over 100 µM, a GI50 (OVCAR-8 ovarian) of over 100 µM and a TGI (OVCAR-8 ovarian) of over 100 µM. It also gave a GI50 (SK-MEL-2 melanoma) of over 100 µM, a TGI (SK-MEL-2 melanoma) of over 100 µM and a GI50 (HT29 colon) of over 100 µM. For the same molecule, the TGI (HT29 colon) was over 100 µM, the GI50 (SNB-75 CNS) was 9.93 µM and the TGI (SNB-75 CNS) was 31 µM. The GI50 (NCI-H522 lung) was over 100 µM, the TGI (NCI-H522 lung) was over 100 µM and the GI50 (T-47D breast) was 72.4 µM. For the same molecule, the TGI (T-47D breast) was over 100 µM, the GI50 (KM12 colon) was over 100 µM and the TGI (KM12 colon) was over 100 µM. For the same molecule, the GI50 (HCT-116 colon) was over 100 µM, the TGI (HCT-116 colon) was over 100 µM and the GI50 (PC-3 prostate) was over 100 µM. For the same molecule, the TGI (PC-3 prostate) was over 100 µM, the GI50 (SK-MEL-28 melanoma) was 60.6 µM and the TGI (SK-MEL-28 melanoma) was over 100 µM. For the same molecule, the GI50 (SW-620 colon) was over 100 µM, the TGI (SW-620 colon) was over 100 µM and the GI50 (RPMI-8226 leukemia) was over 100 µM. For the same molecule, the TGI (RPMI-8226 leukemia) was over 100 µM, the GI50 (TK-10 renal) was over 100 µM and the TGI (TK-10 renal) was over 100 µM. For the same molecule, the GI50 (MOLT-4 leukemia) was over 100 µM, the TGI (MOLT-4 leukemia) was over 100 µM and the GI50 (OVCAR-3 ovarian) was over 100 µM. The TGI (OVCAR-3 ovarian) was over 100 µM, the GI50 (EKVX NSCLC) was over 100 µM and the TGI (EKVX NSCLC) was over 100 µM. The GI50 (UO-31 renal) was over 100 µM, the TGI (UO-31 renal) was over 100 µM and the GI50 (UACC-62 melanoma) was over 100 µM. For the same molecule, the TGI (UACC-62 melanoma) was over 100 µM, the GI50 (RXF 393 renal) was 94.4 µM and the TGI (RXF 393 renal) was over 100 µM. For the same molecule, the GI50 (SF-268 CNS) was over 100 µM, the TGI (SF-268 CNS) was over 100 µM and the GI50 (MDA-MB-435) was over 100 µM. It also gave a TGI (MDA-MB-435) of over 100 µM, a GI50 (K-562 leukemia) of over 100 µM and a TGI (K-562 leukemia) of over 100 µM. The GI50 (LOX IMVI melanoma) was over 100 µM, the TGI (LOX IMVI melanoma) was over 100 µM and the GI50 (NCI-H23 lung) was over 100 µM. It also gave a TGI (NCI-H23 lung) of over 100 µM, a GI50 (U251 CNS) of 63 µM and a TGI (U251 CNS) of over 100 µM. The GI50 (A498 renal) was over 100 µM, the TGI (A498 renal) was over 100 µM and the GI50 (MALME-3M melanoma) was over 100 µM. For the same molecule, the TGI (MALME-3M melanoma) was over 100 µM, the GI50 (IGROV1 ovarian) was over 100 µM and the TGI (IGROV1 ovarian) was over 100 µM. The GI50 (SNB-19 CNS) was 63.7 µM, the TGI (SNB-19 CNS) was over 100 µM and the GI50 (NCI-H226 lung) was over 100 µM. It also gave a TGI (NCI-H226 lung) of over 100 µM, a GI50 (DU-145 prostate) of over 100 µM and a TGI (DU-145 prostate) of over 100 µM. The GI50 (SF-295 CNS) was over 100 µM, the TGI (SF-295 CNS) was over 100 µM and the GI50 (NCI-H460 lung) was over 100 µM. It also gave a TGI (NCI-H460 lung) of over 100 µM, a GI50 (M14 melanoma) of over 100 µM and a TGI (M14 melanoma) of over 100 µM. For the same molecule, the GI50 (CAKI-1 renal) was over 100 µM, the TGI (CAKI-1 renal) was over 100 µM and the GI50 (CCRF-CEM leukemia) was over 100 µM. It also gave a TGI (CCRF-CEM leukemia) of over 100 µM, a GI50 (NCI/ADR-RES ovarian) of over 100 µM and a TGI (NCI/ADR-RES ovarian) of over 100 µM. It also gave a GI50 (ACHN renal) of over 100 µM, a TGI (ACHN renal) of over 100 µM and a GI50 (OVCAR-4 ovarian) of 45 µM. It also gave a TGI (OVCAR-4 ovarian) of over 100 µM, a GI50 (HOP-62 NSCLC) of 73.7 µM and a TGI (HOP-62 NSCLC) of over 100 µM. For the same molecule, the GI50 (MCF7 breast) was over 100 µM, the TGI (MCF7 breast) was over 100 µM and the GI50 (UACC-257 melanoma) was over 100 µM. The TGI (UACC-257 melanoma) was over 100 µM, the GI50 (COLO 205 colon) was over 100 µM and the TGI (COLO 205 colon) was over 100 µM. The GI50 (MDA-MB-231 breast) was 60 µM, the TGI (MDA-MB-231 breast) was over 100 µM and the GI50 (SN12C renal) was over 100 µM. For the same molecule, the TGI (SN12C renal) was over 100 µM, the GI50 (BT-549 breast) was over 100 µM and the TGI (BT-549 breast) was over 100 µM. The GI50 (SK-MEL-5 melanoma) was over 100 µM and the TGI (SK-MEL-5 melanoma) was over 100 µM.
